Data published in article PMC8622152, “Expression Profile and Ligand Screening of a Putative Odorant-Binding Protein, AcerOBP6, from the Asian Honeybee” (Insects, 2021).
Entries after “also recorded” stand apart in the source; their conditions may differ. Read-outs that look alike come from different tables or passages of the source.

How the values were obtained:
antennae of forager bees = test: EAG assay based on RNAi (dsOBP6 feeding); set-up: species or system Apis cerana cerana; conditions: for change of EAG response in dsOBP6 group versus controls: 48 h after feeding dsOBP6-2 dsRNA, p < 0.05
Experimental: The plasmid extracted in Section 2.3 was used as a template to generate 2 dsRNA fragments of AcerOBP6. Meanwhile, dsRNA was synthesized using a T7 RiboMAX™ Express RNAi System (Promega, Madison, WI, USA); the primers used for dsRNA generating are listed in Table S1. The final concentration of dsRNA generation was diluted to 2.5 μg/μL. The concentration and integrity of dsRNA were determined using NanoDrop and agarose gel electrophoresis (1%). Forager bees were collected and fed with AcerOBP6 dsRNA (8 μg for each bee), and then maintained in an artificial climate incubator (65–75% RH; 28 ± 0.4 °C). At the same time, the GFP dsRNA and 30% sugar were employed as the control groups. Each experiment group included 30 bees, and 3 biological repeats were performed. At times of 24, 48, and 96 h after feeding, the RNAi effects were verified by qRT-PCR.
The antennae of forager bees were dissected from the bottom and immediately fixed to both sides of a two-pronged electrode using Spectra 360 electrode gel (Parker Laboratories Inc., Fairfield, NJ, USA). The odorants were dissolved in liquid paraffin to final concentrations of 300 μg/μL, and liquid paraffin was adopted as a blank control. A filter paper strip (3 cm × 1cm) filled with 10 μL tested solution was prepared and put into the tube of Pasteur Pipette, which was connected with the gas feeder equipment. The stimulation time of each odor was 0.5 s and the interval was 30 s. Three technical repetitions were carried out, and ten antennae of female adults were tested for each compound. Finally, the EAGPro software (Syntech) was used to analyze the EAG response recordings.

AcerOBP6 = AcerOBP6 (Apis cerana cerana, UniProt A0A2A3ES84); format: binding; conditions: for binding affinity with AcerOBP6 (in words): competitive binding with 1-NPN, ligand up to 10 µM; for Ki: Ki = [IC50]/(1 + [1-NPN]/K1-NPN), read-out: Ki (dissociation constant); for Ki / IC50: AcerOBP6 1 µM, 1-NPN 1 µM; for IC50: concentration of ligand displacing 50% 1-NPN, ligand 1-10 µM, short dash: not possible to calculate the IC50 value
Experimental: Afterwards, the fluorescent probe N-phenyl-1-naphthylamine (1–NPN) was dissolved in methanol to yield a 1 mM stock solution. […] The binding constant of 1-NPN to AcerOBP6 (K1–NPN) was calculated using Scatchard plots of the binding data in GraphPad Prism 8.0.
Taking 1–NPN as the fluorescent reporter, we measured the binding affinity of each odorant by competitive binding assays using. All the 33 ligands (listed in Table S2) were dissolved in spectrally pure grade methanol. We titrated the odorants in a solution containing AcerOBP6 protein (1 μM) and 1–NPN (1 μM) to the final concentrations of 1–10 μM, respectively.

Sequence of AcerOBP6 (A0A2A3ES84 entry or part of it): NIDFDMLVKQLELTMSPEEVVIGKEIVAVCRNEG

## CCCCCCCCCO [1-Nonanol]
Antennae of forager bees
  change of EAG response in dsOBP6 group versus controls: significantly decreased

## CCCCCC(C)=O [2-Heptanone]
Antennae of forager bees
  change of EAG response in dsOBP6 group versus controls: significantly decreased; also recorded: significant change
Antennae of forager bees; odorant 300 µg/µL in liquid paraffin, 10 µL on filter paper, 0.5 s stimulation
  EAG response of worker bee antennae: strongest response; also recorded: strong EAG responses

## CCOC(=O)/C=C/c1ccccc1 [Ethyl cinnamate]
AcerOBP6
  binding affinity with AcerOBP6 (in words): could not bind or had a weak binding affinity

## CCCCC/C=C\C/C=C\CCCCCCCC(=O)OCC [Ethyl linoleate]
AcerOBP6
  binding affinity with AcerOBP6 (in words): could not bind or had a weak binding affinity

## CCCCCCCC/C=C\CCCCCCCC(=O)OCC [Ethyl oleate]
AcerOBP6
  binding affinity with AcerOBP6 (in words): could not bind or had a weak binding affinity

## CCOC(=O)/C=C/c1ccccc1 [Ethyl-trans-cinnamate]
AcerOBP6; listed as ethyl-trans-cinnamate
  Ki: 3.7 µM
AcerOBP6
  Ki: 3.74 µM
  IC50: 3.93 µM

## CC12CCC(CC1)C(C)(C)O2 [Eucalyptol]
Antennae of forager bees
  change of EAG response in dsOBP6 group versus controls: significantly decreased

## CC(=O)OCCC(C)C [Isoamyl acetate]
AcerOBP6
  binding affinity with AcerOBP6 (in words): could not bind or had a weak binding affinity

## C=CC(C)(O)CCC=C(C)C (centres unmarked) [Linalool]
Antennae of forager bees
  change of EAG response in dsOBP6 group versus controls: significantly decreased

## CC/C=C\C/C=C\C/C=C\CCCCCCCC(=O)OC [Methyl linolenate]
AcerOBP6
  binding affinity with AcerOBP6 (in words): could not bind or had a weak binding affinity

## CCCCCCCC/C=C\CCCCCCCC(=O)OC [Methyl oleate]
AcerOBP6
  binding affinity with AcerOBP6 (in words): could not bind or had a weak binding affinity

## CCCCCCCCCCCCCCCC(=O)OC [Methyl palmitate]
AcerOBP6
  binding affinity with AcerOBP6 (in words): could not bind or had a weak binding affinity
  IC50: > 10 µM

## CCCCCCCCCCCCCCCCCC(=O)OC [Methyl stearate]
AcerOBP6
  binding affinity with AcerOBP6 (in words): could not bind or had a weak binding affinity

## C=CC(=C)CCC=C(C)C [Myrcene]
Antennae of forager bees
  change of EAG response in dsOBP6 group versus controls: significantly decreased

## CCCCCCOC(C)=O [hexyl acetate]
Antennae of forager bees
  change of EAG response in dsOBP6 group versus controls: significantly decreased

## C/C1=C\CC/C(C)=C/CC(C)(C)/C=C/C1 [α-caryophllene]
AcerOBP6
  binding affinity with AcerOBP6 (in words): could not bind or had a weak binding affinity
  IC50: > 10 µM

## CC/C=C\C/C=C\C/C=C\CCCCCCCC(=O)OCC [α-ethyl linolenic]
AcerOBP6
  binding affinity with AcerOBP6 (in words): could not bind or had a weak binding affinity
  IC50: > 10 µM

## C=C/C(C)=C/C/C=C(\C)CCC=C(C)C [α-farnesene]
AcerOBP6
  binding affinity with AcerOBP6 (in words): could not bind or had a weak binding affinity
  IC50: > 10 µM

## C=C/C(C)=C/CC=C(C)C [β-ocimene]
Antennae of forager bees
  change of EAG response in dsOBP6 group versus controls: significantly decreased
AcerOBP6
  Ki: 5.27 µM
  IC50: 5.54 µM

## (+) -Cinene
Antennae of forager bees
  change of EAG response in dsOBP6 group versus controls: significantly decreased
AcerOBP6
  Ki: 5.26 µM
  IC50: 5.53 µM

## -Ionone
AcerOBP6
  Ki: 5.18 µM
  IC50: 5.45 µM

## -Pinene
AcerOBP6
  Ki: 6.35 µM
  IC50: 6.67 µM
